Structures are written as SMILES.

Here are results for 2 compounds from US8633177B2, “Nitroxyl (HNO) releasing compounds and uses thereof in treating diseases” (The United States of America, as represented by the …, priority 2010, dated 2014).

Data set [1] deals with MB-231 cells stably transfected with green fluorescent protein (GFP). Briefly: Tumor size in nude mice implanted with MB-231-GFP cells. It is filed as in vivo. The conditions noted are these: daily injection for 5 weeks, equi-molar dosages, compared to control. The procedure:
40 Nude mice were implanted with 7.5E5 MB-231 cells stably transfected with green fluorescent protein (GFP) per animal and allowed to grow for 14 days. The animals were randomly divided into four groups: untreated as a control, aspirin treated, IPA/NO-aspirin and DEA/NO-aspirin. Treated groups were injected daily with equi-molar dosages of the corresponding compounds (DEA/NO-aspirin=16.25 mg/Kg, IPA/NO-aspirin=15.75 mg/Kg, Aspirin=9 mg/Kg) for the next 5 weeks daily and the tumor size was measured using in vivo fluorescent imaging for quantification of the GFP tag (FIG. 9A (mammary tumor) and FIG. 9B (brain tumor)). The animals were then sacrificed to assess their brain for metastasis.

The subject of data set [2] is carrageenan induced rat paw edema. Briefly: Carrageenan induced rat paw edema assay. It is filed as in vivo, Sprague-Dawley rats. Particulars: for Anti-inflammatory Activity ID50: oral, 3 h after administration. How it is done: Anti-inflammatory properties were studied in vivo in a carrageenan induced rat paw edema assay after 3 h of administration of the compound orally to Sprague-Dawley rats.
To verify whether IPA/NO-aspirin and DEA/NO-aspirin retain the anti-inflammatory properties of their parent NSAID in vivo, aspirin, PA/NO-aspirin or DEA/NO-aspirin was administered to rats with paw edema induced by carrageenan.
For orientation: In the carrageenan paw model, swelling and tenderness develop within hours.

The test system of a further data set is MDA-MB-231 cell line. Briefly: Comet assay for DNA damage, MDA-MB-231. It is filed as cell-based, human. Particulars: 50 μM IPA/NO-aspirin, 75 μM DEA/NO-aspirin. The procedure: The pathological aspect of high ROS is the ability to cause oxidative damage to DNA. To further investigate this possibility, the effect of NONO-aspirin was studied on DNA damage using a comet assay in the MDA-MB-231 cell line.
Cells were plated at a concentration of 50,000 cells per well in a 12 well plate and grown overnight. Cells were treated with 50 μM IPA/NO-aspirin and 75 μM DEA/NO-aspirin for 12 h and the assay was conducted using a comet assay kit (Cat No. 4250-050-K, Trevigen, Md.) as described in the manufacturer's instructions.

Another data set deals with MCF-10A. Briefly: MTT cell survival, MCF-10A. It is filed as cell-based. The conditions noted are these: MCF-10A normal mammary epithelial cell line, 48 h. The procedure: MDA-MB-231, MCF-7 and MDA-MB-468, human breast carcinoma cell lines and MCF-10A, breast […] (American Type Culture Collection, Manassas, Va.) were grown as monolayers in RPMI 1640 supplemented with 10% FCS (Hyclone), penicillin (50 units/ml), streptomycin ([…]; Life Technologies, Inc., Grand Island, N.Y.) and endothelial growth media (Lonanza) respectively. Cells were seeded at a density of 1×10^6 cells/100-cm^2 culture dish and incubated at 37° C. in 5% CO2 and 80% relative humidity. Single-cell suspensions were obtained by trypsinization (0.05% trypsin/EDTA), and cells were counted using a Beckman cell counter.
1000× stock solutions aspirin, of a DEA/NO-ASA, and IPA/NO-ASA were made in DMSO and final concentration in the media or PBS was adjusted to 0.1% DMSO.
The effect of NONO-aspirin on cell proliferation was studied using an MTT assay. The effect of DEA/NO-ASA, IPA/NO-ASA, aspirin, IPA/NO and DEA/NO was measured using the MTT assay. Cells were plated at a concentration of 8,000-10,000 cells per well in a 96 well plate and grown overnight. Cells were treated with different concentrations of the compounds and controls for 48 h. After 48 h, a solution of 5 mg/ml MTT was added to each well and incubated for 1 h. Then the media was removed from each well and 100 uL DMSO was added to each well and the absorbance was read at 550 nm. […]

The test system of the next data set is A549 cells. Briefly: MTT proliferation assay, A549 cells. The conditions noted are these: 48 h. It is filed as cell-based. The procedure:
The effect of compounds 4 and 8 was studied on proliferation of A549 cells by 3-(4,5-Dimethylthiazol-2-yl)-2,5-diphenyltetrazolium bromide (MTT) assay. Cells were plated at a concentration of 10,000 cells per well in a 96 well plate and grown overnight. Then the cells were treated with different concentration of the compounds and controls for 48 h. After 48 h, a solution of 2 mg/ml MTT was added to each well and incubated for 1 hr. The media was then removed from each well and 100 μL DMSO was added to each well and the absorbance was recorded at 550 nm.
In general terms: Tetrazolium assays rely on reduction of a dye to a coloured formazan, in cell work by metabolically active cells.

Data set [3] deals with T1, glyceraldehyde-3-phosphate dehydrogenase (GAPDH) (Homo sapiens, UniProt P04406). Briefly: GAPDH activity, MCF-10A. It is filed as cell-based. More on the design: endogenous in cells. Particulars: MCF-10A cell line. How it is done: Cells were plated at a concentration of 30,000 cells per well and grown overnight. Cells were treated with 100 μM IPA/NO-aspirin and DEA/NO-aspirin for 1, 3, and 6 h after which 200 μL of KDalert lysis buffer was added to each well. The plate was incubated at 4° C. for 20 min to lyse the cells. 10 μL of cell lysate was transferred to a clean 96 well plate and 90 μL of KDalert mastermix was added to each well and the fluorescence was measured at excitation of 540 nm and emission of 570 nm.

In data set [4] the target is T1, glyceraldehyde-3-phosphate dehydrogenase (GAPDH). Briefly: GAPDH activity in A549 cells (KDalert). It counts as cell-based. On the set-up: GAPDH activity in A549 cells at different time points; endogenous in cells; host or cells: A549. The procedure:
In an effort to decipher the mechanism of action of compounds 4 and 8, their effect on glyceraldehyde-3-phosphate dehydrogenase (GAPDH) activity was measured. GAPDH is a glycolytic enzyme which reversibly catalyzes the oxidation of D-glyceraldehyde-3-phosphate to 1,3-diphosphoglycerate. This method utilizes the conversion of NAD^+ to NADH by GAPDH in the presence of glyceraldehydes-3-phosphate and phosphate, which can be measured at an excitation of 560 nm and emission of 590 nm.
Cells were plated at a concentration of 30,000 cells per well and grown overnight. Then they were treated with 100 μM IPA/NO-aspirin and DEA/NO-aspirin for 1, 3, and 6 h followed by which 200 μL of KDalert lysis buffer was added to each well. The plate was incubated at 4° C. for 20 min to lyse the cells. Then 10 μL of cell lysate was transferred to a clean 96 well plate and 90 μL of KDalert mastermix was added to each well and fluorescence was measured at excitation of […]. […] It is also a critical glycolytic enzyme that can play an important role in cancer therapy as solid tumors are known to utilize glycolytic pathways even during normoxia to meet energy requirements (Gatenby et al., Nat. Rev. Cancer, 4(11):891099 (2004)). Thus, inhibition of GAPDH can diminish the […] of tumor cells.

T1 sequence (P04406 whole entry): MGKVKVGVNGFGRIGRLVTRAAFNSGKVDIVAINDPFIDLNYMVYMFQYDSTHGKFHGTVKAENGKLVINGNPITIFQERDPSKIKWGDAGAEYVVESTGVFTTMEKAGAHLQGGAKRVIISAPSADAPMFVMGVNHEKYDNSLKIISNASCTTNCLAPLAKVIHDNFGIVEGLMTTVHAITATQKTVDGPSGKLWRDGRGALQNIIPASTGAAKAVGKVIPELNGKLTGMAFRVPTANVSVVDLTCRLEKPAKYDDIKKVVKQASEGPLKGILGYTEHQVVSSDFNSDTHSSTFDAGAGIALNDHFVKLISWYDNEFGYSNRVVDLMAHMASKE

Consider `CCN(CC)[N+]([O-])=NOCOC(=O)c1ccccc1OC(C)=O` [DEA/NO-aspirin, O^2-(Acetylsalicyloyloxymethyl)-1-(N,N-Diethylamino)-diazen-1-ium-1,2-diolate], for which the tumor size entry in data set [1] is recorded as “effective in reducing the tumor size”. Moreover, the “potency relative to aspirin” value in data set [2] (less potent than parent drug) worked out at 1.3 times. Further, the “Anti-inflammatory Activity ID50” value in data set [2] came out at 168.6 mg/kg. For the same compound, the “DNA damage (comet assay)” value with MDA-MB-231 cell line is reported as “comparable to the DMSO treated control”. The cytotoxicity entry with MCF-10A is given as “none of the compounds showed any significant cytotoxicity”.
As to `CC(=O)Oc1ccccc1C(=O)OCON=[N+]([O-])NC(C)C` [IPA/NO-aspirin, O^2-(Acetylsalicyloyloxymethyl)-1-(N-isopropylamino)-diazen-1-ium-1,2-diolate], the tumor size result in data set [1] is reported as “effective in reducing the tumor size”. The “toxicity in MTT assay” value in the data set on A549 cells is listed as “slightly higher toxicity than compound 8”. Moreover, the GAPDH Activity entry is on record as “did not inhibit GAPDH activity” in data set [3] and “inhibition of GAPDH activity at micro-molar concentrations” in data set [4]. Further, in data set [2], the “Anti-inflammatory Activity ID50” value is reported as 121.3 mg/kg. In the data set on MDA-MB-231 cell line, the “DNA damage (comet assay)” value is recorded as “significant DNA damage”. For the same compound, in the data set on MCF-10A, the cytotoxicity result is given as “none of the compounds showed any significant cytotoxicity”.
